Laboratory results published in patent US20240299376A1, “METHOD OF TREATING A CONDITION USING A […] EFFECTIVE DOSE OF 1-(1-OXO-1,2-DIHYDROISOQUINOLIN-5-YL)-5-(TRIFLUOROMETHYL)-N-(2-(TRIFLUOROMETHYL)PYRIDIN-4-YL)-1H-PYRAZOLE-4-CARBOXAMIDE” (Janssen Pharmaceutica NV, priority 2021, published 2024).

Key:
[1] = system: OCI-LY3 human DLBCL xenografts; assay: Antitumor efficacy in established OCI-LY3 human DLBCL xenografts; format: in vivo, NSG mice
Protocol: The human ABC-DLBCL cell line OCI-LY3 was obtained from Dr. Miguel A Piris, Hospital Universitario Marques de Valdecilla, Santander, Spain. The human ABC-DLBCL cell line OCI-LY-10 was obtained from University Hospital Network, Ontario Cancer Institute. OCY-LY3 cells were maintained at 37° C. in a humidified atmosphere (5% CO2, 95% air), in RPMI-1640 medium with GlutaMAX™, supplemented with 10% Fetal Bovine Serum (Heat Inactivated at 57° C., and 1% Penicillin-Streptomycin). Each mouse received 1×10^6 cells in serum-free RPMI-1640 medium or PBS with Matrigel basement matrix […] in a total volume of 0.2 mL. Cells were implanted SC in the right flank using a 1 ml syringe and a 26-gauge needle. The day of tumor implantation was designated as Day 0.
Tumor volume was calculated using the formula: tumor volume (mm^3)=(Dxd^2/2); where ‘D’ represents the larger diameter, and ‘d’ the smaller diameter of the tumor as determined by caliper measurements. Tumor volume data was graphically represented as the mean tumor volume±SEM.
Percent tumor growth inhibition (TGI) was defined as the difference between mean tumor volumes of the treated and control group, calculated as
where TVc is the mean tumor volume of a given control group and TVt is the mean tumor volume of the treatment group. As defined by National Cancer Institute criteria, ≥60% TGI is considered biologically significant.
Group tumor volumes are graphed as the mean+/−SEM. Mice were implanted SC on the right flank on Day 0.
For study 3, animals were randomly assigned into treatment groups, when the OCI-LY3 mean tumor volume was 164 mm^3 (Day 32 post-tumor cell implantation). Treatment was initiated on the day of randomization (Day 32). After 28 days of treatment on Day 60, serum was collected at 2, 4, and 12 hours post last dose for the bid treated groups or 2, 4 and 24 hours post last dose for qd treated groups in cohorts of 5 mice. Blood was collected from the retro-orbital sinus and submitted for bioanalytical analysis.

[2] = system: IL-6 secretion by OCI-LY3 ABC-DLBCL cells; assay: IL-6 secretion assay (MesoScale Discovery); format: cell-based; conditions: Homo sapiens; supernatants of OCI-LY3 cells, 16 independent experiments
Protocol: NF-κB signaling regulates the secretion of multiple cytokines, including interleukin (IL)-6 and IL-10. Libermann T A et al. Mol Cell Biol. 1990; 10(6):3155-3162; and Cao S, et al. J Biol Chem. 2006; 281(36):26041-26050. Secretion of the cytokines IL-6 and IL-10 by OCI-LY3 ABC-DLBCL cells was measured using a MesoScale Discovery (MSD) assay.

Single IV dose plasma PK = format: in vivo, monkey
Protocol: Single intravenous (IV) dose PK was conducted in mice (two strains), rats, monkeys, and dogs at a dose of 1 mg/kg in 70% PEG400 (PEG400/water 70:30) by bolus injection. The time course for plasma sample was optimized to fully characterize the disposition profile in each species. PK analysis was by non-compartmental method.

[3] = Oral bioavailability, 5 mg/kg solution in PEG400; format: in vivo, mice, rats, dogs, and monkeys; conditions: plasma, oral 5 mg/kg
From the text: (Data for mice, rats, and monkeys are not shown.)

[4] = Serum concentration after 28 days of oral dosing in male OCI-LY3 tumor-bearing NSG mice; format: in vivo; conditions: mouse, mean; for concentration at 0.25 h: 0.25 h post last dose
[5] = male, plasma, Monkey, cynomolgus, 3M, 1 mg/kg IV in 70% PEG400, mean

SMILES: O=C(Nc1ccnc(C(F)(F)F)c1)c1cnn(-c2cccc3c(=O)[nH]ccc23)c1C(F)(F)F [Compound A, 1-(1-oxo-1,2-dihydroisoquinolin-5-yl)-5-(trifluoromethyl)-N-[2-(trifluoromethyl)pyridin-4-yl]-1H-pyrazole-4-carboxamide]
- TGI ([1]; 1 mg/kg BID PO, 4 weeks, vs vehicle control): 37%
- TGI (%) at day 28 ([1]; 1 mg/kg, bid (Table 4)): 46%
- TGI ([1]; 3 mg/kg BID PO, 4 weeks, vs vehicle control): 19%
- TGI (%) at day 28 ([1]; 3 mg/kg, bid (Table 4)): 23%
- TGI ([1]; 10 mg/kg BID PO, 4 weeks, vs vehicle control): 53%
- mean TGI ([1]; 10 mg/kg BID, 3 independent OCI-LY3 antitumor efficacy studies): 60%
- TGI ([1]; 10 mg/kg BID, previous efficacy studies in the OCI-LY3 model): 51-76%
- TGI ([1]; 10 mg/kg, 8/16 hr split schedule instead of 12/12 hr): 57%
- TGI (%) at day 28 ([1]; 10 mg/kg, bid (Table 4)): 66%
- TGI ([1]; 30 mg/kg BID PO, 4 weeks, vs vehicle control): 72%
- TGI ([1]; 30 mg/kg BID, previous efficacy studies in the OCI-LY3 model): 60-86%
- TGI (%) at day 28 ([1]; 30 mg/kg, bid (Table 4)): 90%
- TGI ([1]; 60 mg/kg QD PO, 4 weeks, vs vehicle control): 57%
- TGI (%) at day 28 ([1]; 60 mg/kg, qd (Table 4)): 71%
- TGI ([1]; 100 mg/kg BID PO, 4 weeks, vs vehicle control): 72%
- TGI (%) at day 28 ([1]; 100 mg/kg, bid (Table 4)): 90%
- TGI ([1]; 100 mg/kg, previous efficacy studies in the OCI-LY3 model): 62-89%
- tolerability ([1]; 1 to 100 mg/kg (BID or QD), OCI-LY3 and OCI-LY10 xenograft models in NSG mice): well tolerated
- minimum efficacious dose ([1]; BID, OCI-LY3 model): 10 mg/kg
- IC50 [2]: 0.114 ± 0.041 µM
- AUC(0-inf) (Single IV dose plasma PK; [5]): 16.4 µg·h/mL
- C0 (Single IV dose plasma PK; [5]): 1.84 µg/mL
- clearance (Single IV dose plasma PK; [5]): 0.0672 L/h/kg
- half-life (Single IV dose plasma PK; [5]): 11.9 h
- Vd (Single IV dose plasma PK; male, plasma, Monkey, cynomolgus, 3M, 1 mg/kg IV in 70% PEG400, mean, read-out: Vdss): 0.748 L/kg
- CL as fraction of liver blood flow (LBF) (Single IV dose plasma PK; monkey, LBF 43.6 mL/min/kg): 1.7%
- bioavailability ([3]; Sprague-Dawley, rat, rats): 51.2%
- bioavailability ([3]; beagle, dog, dogs): 100%
- bioavailability ([3]; mouse, rat, dog, monkey, all species (mice, rats, dogs, monkeys)): > 50%
- concentration at 0.25 h ([4]; 1 mg/kg BID PO 28 days): 0.323 µg/mL
- concentration at 0.25 h ([4]; 60 mg/kg QD PO 28 days): 6.99 µg/mL
- concentration at 8 h ([4]; 60 mg/kg QD PO 28 days, 8 h post last dose): 10.6 µg/mL
